Reference: US20240158446A1, “CYCLIC COMPOUND HAVING SELECTIVE INHIBITORY ACTION ON KRAS OVER HRAS AND NRAS” (CHUGAI SEIYAKU KABUSHIKI KAISHA, priority 2021, published 2024)
Where two headings read alike, the source gives them in different places. Where a SMILES comes first, the peptide text is derived from it. Bridges are numbered along the chain shown (N, C = ends). [ ]: non-standard residue; d: D form. The star is where a group is joined. hPhe(3-Cl-4-CF3) = N[C@@H](CCc1ccc(C(F)(F)F)c(Cl)c1)C(=O)O; NPrPhe(4-CF3) = CCCN[C@@H](Cc1ccc(C(F)(F)F)cc1)C(=O)O; NMeGly(cPent) = CN[C@H](C(=O)O)C1CCCC1; Pro(4,4-F2) = O=C(O)[C@@H]1CC(F)(F)CN1; NMeD = CN[C@@H](CC(=O)O)C(=O)O; NMeL = CN[C@@H](CC(C)C)C(=O)O; Ac5c = NC1(C(=O)O)CCCC1; X24 = CC1(C)CCN(*)C1; NEtG = CCNCC(=O)O; Sar = CNCC(=O)O

What was measured:
[1] = biological target: GDP-bound NRAS wild-type protein (Homo sapiens, UniProt P01111); assay: Binding to NRAS by surface plasmon resonance (SPR), Single Cycle Kinetics
Sequence of GDP-bound NRAS wild-type protein (P01111 whole entry): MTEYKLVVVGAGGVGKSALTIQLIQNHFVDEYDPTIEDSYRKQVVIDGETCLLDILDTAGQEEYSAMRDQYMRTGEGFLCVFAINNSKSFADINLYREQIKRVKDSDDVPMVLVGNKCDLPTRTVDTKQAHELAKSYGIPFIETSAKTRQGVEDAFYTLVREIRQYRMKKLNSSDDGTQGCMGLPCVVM

[2] = biological target: GDP-bound HRAS wild-type protein (Homo sapiens, UniProt P01112); assay: Binding to HRAS by surface plasmon resonance (SPR), Single Cycle Kinetics
Sequence of GDP-bound HRAS wild-type protein (P01112 whole entry): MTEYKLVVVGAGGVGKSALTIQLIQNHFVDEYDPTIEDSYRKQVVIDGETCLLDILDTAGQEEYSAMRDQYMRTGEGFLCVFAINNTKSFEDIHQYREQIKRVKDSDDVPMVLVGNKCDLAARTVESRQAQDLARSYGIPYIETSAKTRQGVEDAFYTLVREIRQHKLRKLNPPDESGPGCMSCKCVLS

[3] = biological target: GDP-bound KRAS wild-type protein (Homo sapiens, UniProt P01116); assay: Binding to KRAS by surface plasmon resonance (SPR), Single Cycle Kinetics; settings: GDP-bound KRAS wild-type protein, read-out: KRAS KD
Sequence of GDP-bound KRAS wild-type protein (P01116 whole entry): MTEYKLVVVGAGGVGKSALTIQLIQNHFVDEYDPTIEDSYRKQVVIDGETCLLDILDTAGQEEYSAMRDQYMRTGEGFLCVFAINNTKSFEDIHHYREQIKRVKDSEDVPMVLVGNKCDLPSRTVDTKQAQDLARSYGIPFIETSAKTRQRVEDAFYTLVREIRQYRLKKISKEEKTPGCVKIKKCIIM

[4] = SPR, GDP-bound NRAS wild-type protein vs GDP-bound KRAS wild-type protein
[5] = SPR, GDP-bound HRAS wild-type protein vs GDP-bound KRAS wild-type protein
[6] = SPR Single Cycle Kinetics, 1:1 binding model

| SMILES | NRAS/KRAS (ratio of KD value for NRAS to KD value for KRAS) [1, 4] | HRAS/KRAS (ratio of KD value for HRAS to KD value for KRAS) [2, 5] | Kd [3, 6] [nM] | Kd ([3]; SPR, Single Cycle Kinetics) [nM] | NRAS/KRAS (ratio of KD value with respect to NRAS to KD value with respect to KRAS) [1, 4] | HRAS/KRAS (ratio of KD value with respect to HRAS to KD value with respect to KRAS) [2, 5] | NRAS/KRAS (ratio of KD value with respect to GDP-bound NRAS wild-type protein to KD value with respect to KRAS) ([1]; SPR KD ratio NRAS/KRAS, class symbols) | HRAS/KRAS (ratio of KD value with respect to GDP-bound HRAS wild-type protein to KD value with respect to KRAS) ([2]; SPR KD ratio HRAS/KRAS, class symbols) |
| --- | --- | --- | --- | --- | --- | --- | --- | --- |
| CCCN1C(=O)CN(C)C(=O)CN(CC)C(=O)[C@H]([C@@H](C)CC)NC(=O)[C@H](CC(C)C)N(C)C(=O)C[C@@H](C(=O)N(C)C)NC(=O)[C@H](C2CCCC2)N(C)C(=O)C2(CCCC2)NC(=O)[C@@H]2CC(F)(F)CN2C(=O)[C@H](CCc2ccc(C(F)(F)F)c(Cl)c2)NC(=O)CN(C)C(=O)[C@@H]1Cc1ccc(C(F)(F)F)cc1 [PP0369] ([NMeL]I[NEtG][Sar][NPrPhe(4-CF3)][Sar][hPhe(3-Cl-4-CF3)][Pro(4,4-F2)][Ac5c][NMeGly(cPent)]D-NMe2; lactam N-11) | B (a compound having 3 or more and less than 10 is denoted as B) | C (A compound having a KD ratio of 0.1 or more and less than 3 is denoted as C) | 1.9 |  |  |  |  |  |
| CCO[C@@H]1C[C@H]2C(=O)NC3(CCC3)C(=O)N(C)[C@@H](C3CCCC3)C(=O)N(C)[C@H](C(=O)N3CCC3)CC(=O)N(C)[C@@H](CC)C(=O)N[C@@H]([C@@H](C)CC)C(=O)N(C)CC(=O)N(C)[C@H]3C/C=C\CCN(C3=O)[C@@H](Cc3ccc(C(F)(F)F)cc3)C(=O)N(C)CC(=O)N[C@@H](CCc3cc(F)c(C(F)(F)F)c(F)c3)C(=O)N2C1 [PP1091, (2S,8S,12R,14S,20S,23S,27S,30S,36S,38Z)-23-(azetidine-1-carbonyl)-20-cyclopentyl-8-[2-[3,5-difluoro-4-(trifluoromethyl)phenyl]ethyl]-12-ethoxy-27-ethyl-4,19,22,26,32,35-hexamethyl-30-[(1S)-1-methylpropyl]-2-[[4-(trifluoromethyl)phenyl]methyl]spiro[1,4,7,10,16,19,22,26,29,32,35-undecazatricyclo[34.5.1.0^10,14]dotetracont-38-ene-17,1′-cyclobutane]-3,6,9,15,18,21,25,28,31,34,42-undecone] | A (a compound having 10 or more and less than 20 is denoted as A) | B (a compound having 3 or more and less than 10 is denoted as B) |  | 0.11 |  |  |  |  |
| C#CC[C@H]1C(=O)N[C@@H]([C@@H](C)CC)C(=O)N(C)CC(=O)N(C)[C@H]2CCCCN(C2=O)[C@@H](Cc2ccc(C(F)(F)F)cc2)C(=O)N(C)CC(=O)N[C@@H](CCc2cc(F)c(C(F)(F)F)c(F)c2)C(=O)N2C[C@H](OCC)C[C@H]2C(=O)NC2(CCC2)C(=O)N(C)[C@@H](C2CCCC2)C(=O)N(C)[C@H](C(=O)N2CCOCC2)CC(=O)N1C [PP0711] |  |  | 0.025 |  | C (A compound having a KD ratio of 0.1 or more and less than 3 is denoted as C) | B (a compound having 3 or more and less than 10 is denoted as B) |  |  |
| CCO[C@@H]1C[C@H]2C(=O)NC3(CC(C)(C)C3)C(=O)N(C)[C@@H](C(CC)CC)C(=O)N(C)[C@H](C(=O)N3CCCC3)CC(=O)N(C)[C@H]3CCC/C=C/c4ccc(cc4)C[C@@H](C(=O)N(C)CC(=O)N[C@@H](CCc4cc(F)c(C(F)(F)F)c(F)c4)C(=O)N2C1)N1CC/C=C\C[C@@H](C1=O)N(C)C(=O)CN(C)C(=O)[C@H]([C@@H](C)CC)NC3=O [PP2576] |  |  | 0.14 |  |  |  | A (a compound having 10 or more and less than 20 is denoted as A) | A (a compound having 10 or more and less than 20 is denoted as A) |
| CCCN1C(=O)CN(C)C(=O)CN(C)C(=O)[C@H]([C@@H](C)CC)NC(=O)[C@H](CC(C)C)N(C)C(=O)C[C@@H](C(=O)N2CCC(C)(C)C2)N(C)C(=O)[C@H](C2CCCC2)N(C)C(=O)C2(CCCC2)NC(=O)[C@@H]2CCCN2C(=O)[C@H](CCc2ccc(C(F)(F)F)c(Cl)c2)NC(=O)CN(C)C(=O)[C@@H]1Cc1ccc(C(F)(F)F)cc1 [PP0177] ([NMeL]I[Sar][Sar][NPrPhe(4-CF3)][Sar][hPhe(3-Cl-4-CF3)]P[Ac5c][NMeGly(cPent)][NMeD]-X24; lactam N-11) | B (a compound having 3 or more and less than 10 is denoted as B) | C (A compound having a KD ratio of 0.1 or more and less than 3 is denoted as C) | 0.55 |  |  |  |  |  |
